Earlier results in patent publication US20070059365A1, “Novel formulation of ropinirole” (priority 2003, published 2007).

Settings: in vivo

half-life of ropinirole: 5 to 6 h
Structure (SMILES): CCCN(CCC)CCc1cccc2c1CC(=O)N2.Cl [ropinirole, 4-(2-di-n-propylaminoethyl)-2(3H)-indolone hydrochloride]
